The values below come from ChEMBL document CHEMBL1914333, “Synthesis and evaluation of compounds that induce readthrough of premature termination codons” (Bioorg Med Chem Lett, 2011).

For experiment [1], the target named is T1, 80S Ribosome (Homo sapiens) (UniProt P08865+P42677+P62753+P15880+P23396+P61247+P62701+P22090+P46782+P62081+P62241+P46781+P46783+P62280+P25398+P62277+P62263+P62841+P62244+P62249+P08708+P62269+P39019+P60866+P63220+P62266+P62847+P62851+P62854+P62979+P62857+P62273+P62861+P39023+P36578+P46777+Q02878+P18124+P62424+P62917+P32969+P27635+P62906+P62913+P30050+P26373+P40429+P50914+P61313+P18621+Q07020+Q02543+P84098+P46778+P35268+P62829+P62750+P83731+P61254+P61353+P46776+P46779+P47914+P62888+P62899+P62910+P49207+P42766+P18077+Q9Y3U8+P83881+P61927+P61513+P63173+P62891+P62945+P05388+P05386). The experiment can be described thus: Induction of ribosome to readthrough in human A-T lymphoblastoid cells assessed as ATM ser1981 autophosphorylation at 30 uM after 4 days by PTT-ELISA assay. Format: subcellular.

In experiment [2] the target is T1, 80S Ribosome (Homo sapiens). Nature of the experiment: Induction of ribosome to readthrough in human A-T lymphoblastoid cells assessed as irradiation-induced ATM Ser1981 nuclear foci formation at 30 uM after 4 days by PTT-ELISA. In kind it is subcellular.

The structures appear in SMILES notation. Activity calls are given as the source filed them. The calls are words filed in the database; no cut-off is given here.

For the molecule `N=C1NC(=O)/C(=C/c2cc3ccccc3o2)S1`, in experiment [1], the Flu intensity entry was “inactive”.
Same read-out and setting: in the case of `N=C1NC(=O)/C(=C/c2ccc(-c3ccccc3F)o2)S1` it was “inactive”.
As for `O=c1ccn(Cc2ccc(-c3ccccc3)o2)c(=O)[nH]1`, in experiment [1], the Flu intensity amounted to 3.42. Further, the Activity in experiment [2] turned out to be 9.4%.
`O=C1NC(=S)S/C1=C\c1cc2ccccc2o1`: in experiment [1], the Flu intensity stood at 3.5.
Regarding `O=c1ccn(Cc2ccc(-c3cccc(Cl)c3)o2)c(=O)[nH]1`, in experiment [1], the Flu intensity was found to be 5.07. Besides, in experiment [2], the Activity was 11.3%.
For the molecule `N=C1NC(=O)/C(=C/c2ccc(-c3ccccc3Cl)o2)S1`, the Flu intensity entry in experiment [1] is “inactive”.
Same read-out and setting: in the case of `O=C1NC(=S)S/C1=C\c1ccc(-c2ccccn2)o1` it was “inactive”; in that of `O=C1NC(=S)S/C1=C\c1c[nH]c2ccccc12`, “inactive”.
With `N=C1NC(=O)/C(=C/c2c[nH]c(=O)[nH]c2=O)S1`, the Flu intensity in experiment [1] is 5.32. For the same molecule, the Activity in experiment [2] was found to be 17%.
Take `N=C1NC(=O)/C(=C/c2ccc(-c3ccccc3)o2)S1`: the Flu intensity result in experiment [1] was “inactive”.
For `N=C1NC(=O)/C(=C/c2ccc(-c3ccccn3)o2)S1`, in experiment [1], the Flu intensity result is “inactive”.
`Cc1cn(Cc2ccc(-c3ccccc3F)o2)c(=O)[nH]c1=O`: the Flu intensity in experiment [1] amounted to 6.16. Further, the Activity in experiment [2] stood at 9.6%.
For `CN1C(=N)S/C(=C\c2ccc(-c3ccccc3[N+](=O)[O-])o2)C1=O`, the Flu intensity entry in experiment [1] is “inactive”.
`O=C1NC(=S)S/C1=C\c1cc2ccccc2[nH]1`: in experiment [1], the Flu intensity entry is “inactive”.
With `N=C1NC(=O)/C(=C/c2ccc(-c3ccccc3[N+](=O)[O-])o2)S1`, the Flu intensity in experiment [1] turned out to be 3.27.
With `Nc1ccn(Cc2ccc(-c3ccccc3[N+](=O)[O-])o2)c(=O)n1`, in experiment [1], the Flu intensity result is “inactive”. For the same molecule, the result in experiment [2] was inactive.
As to `O=Cc1cn(Cc2ccc(-c3ccccc3[N+](=O)[O-])o2)c(=O)[nH]c1=O`, the Flu intensity in experiment [1] stood at 2.24. The Activity in experiment [2] came to 16%.
As to `Nc1nc(=O)n(Cc2ccc(-c3ccccc3[N+](=O)[O-])o2)cc1F`, the Flu intensity result in experiment [1] was “inactive”. Further, the result in experiment [2] was inactive.
For the molecule `COc1cccc(-c2ccc(/C=C3\SC(=N)NC3=O)o2)c1`, the Flu intensity in experiment [1] worked out at 1.9.
Regarding `O=C1NC(=S)S/C1=C\c1ccc(-c2ccccc2C(F)(F)F)o1`, the Flu intensity entry in experiment [1] was “inactive”.
Take `N=C1NC(=O)/C(=C/c2ccc(-c3cccc(F)c3)o2)S1`: in experiment [1], the Flu intensity result was “inactive”.
On the same count and under the same terms, in the case of `N=C1NC(=O)/C(=C/c2ccc(-c3ccccc3C(F)(F)F)o2)S1` it was “inactive”.
On the same count and under the same terms, for `COc1ccccc1-c1ccc(/C=C2\SC(=S)NC2=O)o1` the value was “inactive”.
Take `O=c1ccn(Cc2ccc(-c3ccccc3[N+](=O)[O-])o2)c(=O)[nH]1`: the Flu intensity in experiment [1] stood at 4.94. For the same molecule, in experiment [2], the Activity is 10.7%.
Regarding `N=C1NC(=O)/C(=C/c2cc3ccccc3[nH]2)S1`, the Flu intensity result in experiment [1] was “inactive”.
On to `COc1ccccc1-c1ccc(/C=C2\SC(=N)NC2=O)o1`, for which the Flu intensity result in experiment [1] is “inactive”.
Regarding `N=C1NC(=O)/C(=C/c2ccco2)S1`, the Flu intensity result in experiment [1] was “inactive”.
Regarding `O=c1[nH]c(=O)n(Cc2ccc(-c3ccccc3[N+](=O)[O-])o2)cc1F`, in experiment [1], the Flu intensity worked out at 2.08. In experiment [2], the Activity amounted to 14.5%.
For the molecule `O=C1NC(=S)S/C1=C\c1ccc(-c2cccc(Cl)c2)o1`, the Flu intensity in experiment [1] was found to be 2.86.
As for `O=C1NC(=S)S/C1=C\c1ccc(-c2ccccc2Cl)o1`, the Flu intensity in experiment [1] is 3.55.
For `O=C1NC(=S)S/C1=C\c1ccc(-c2cccc(F)c2)o1`, the Flu intensity in experiment [1] turned out to be 3.44.
As for `O=C1NC(=S)S/C1=C\c1ccc(-c2ccccc2[N+](=O)[O-])o1`, in experiment [1], the Flu intensity result was “inactive”.
On to `O=c1ccn(Cc2ccc(-c3ccccc3F)o2)c(=O)[nH]1`, for which the Flu intensity in experiment [1] was 5.43. Moreover, in experiment [2], the Activity was found to be 20%.
The corresponding values for `Cc1cn(Cc2ccc(-c3ccccc3)o2)c(=O)[nH]c1=O` are 3.8 and 22.8%.
`N=C1NC(=O)/C(=C/c2c[nH]c3ccccc23)S1`: the Flu intensity entry in experiment [1] is “inactive”.
For the molecule `COc1cccc(-c2ccc(/C=C3\SC(=S)NC3=O)o2)c1`, the Flu intensity in experiment [1] was determined as 2.66.
`N=C1NC(=O)/C(=C/c2ccc(-c3cccc(Cl)c3)o2)S1`: the Flu intensity in experiment [1] was found to be 2.27.
Consider `Cc1cn(Cc2ccc(-c3ccccc3[N+](=O)[O-])o2)c(=O)[nH]c1=O`, for which the Flu intensity result in experiment [1] is “inactive”. Moreover, the result in experiment [2] was inactive.
Consider `N=C1NC(=O)/C(=C/c2cn(Cc3ccc(-c4ccccc4[N+](=O)[O-])o3)c(=O)[nH]c2=O)S1`, for which the Flu intensity in experiment [1] came out at 2.42. For the same molecule, in experiment [2], the Activity stood at 18%.
Regarding `N=C1NC(=O)/C(=C/c2ccc(-c3ccccc3)s2)S1`, the Flu intensity entry in experiment [1] was “inactive”.
As for `O=C1NC(=S)S/C1=C\c1ccc(-c2ccccc2F)o1`, the Flu intensity in experiment [1] worked out at 2.86.
